Source: patent US4177277A, “Method for alleviating hypertension” (E. R. Squibb & Sons, Inc., priority 1978, dated 1979)
In brackets after ≈: the same amount, converted by molar mass. Non-standard residues stand in square brackets, D forms with d. Residues, ends and D or L forms follow the SMILES beside them.

Experiments:
[1] = molecular target: T1, angiotensin-converting enzyme of rabbit lung (Oryctolagus cuniculus, UniProt P12822); test: Inhibition of isolated angiotensin-converting enzyme of rabbit lung (cleavage of hippuryl-L-histidyl-L-leucine); assay type: biochemical; conditions: 5 mM hippuryl-L-histidyl-L-leucine, pH 8.3, 30 minutes at 37° C., read-out: I50 (concentration producing a 50% inhibition of angiotensin-converting enzyme) (converted)
T1 construct: isolated angiotensin converting enzyme from rabbit lungs; from tissue; host or cells: rabbit lung
T1 sequence (P12822 34-1310): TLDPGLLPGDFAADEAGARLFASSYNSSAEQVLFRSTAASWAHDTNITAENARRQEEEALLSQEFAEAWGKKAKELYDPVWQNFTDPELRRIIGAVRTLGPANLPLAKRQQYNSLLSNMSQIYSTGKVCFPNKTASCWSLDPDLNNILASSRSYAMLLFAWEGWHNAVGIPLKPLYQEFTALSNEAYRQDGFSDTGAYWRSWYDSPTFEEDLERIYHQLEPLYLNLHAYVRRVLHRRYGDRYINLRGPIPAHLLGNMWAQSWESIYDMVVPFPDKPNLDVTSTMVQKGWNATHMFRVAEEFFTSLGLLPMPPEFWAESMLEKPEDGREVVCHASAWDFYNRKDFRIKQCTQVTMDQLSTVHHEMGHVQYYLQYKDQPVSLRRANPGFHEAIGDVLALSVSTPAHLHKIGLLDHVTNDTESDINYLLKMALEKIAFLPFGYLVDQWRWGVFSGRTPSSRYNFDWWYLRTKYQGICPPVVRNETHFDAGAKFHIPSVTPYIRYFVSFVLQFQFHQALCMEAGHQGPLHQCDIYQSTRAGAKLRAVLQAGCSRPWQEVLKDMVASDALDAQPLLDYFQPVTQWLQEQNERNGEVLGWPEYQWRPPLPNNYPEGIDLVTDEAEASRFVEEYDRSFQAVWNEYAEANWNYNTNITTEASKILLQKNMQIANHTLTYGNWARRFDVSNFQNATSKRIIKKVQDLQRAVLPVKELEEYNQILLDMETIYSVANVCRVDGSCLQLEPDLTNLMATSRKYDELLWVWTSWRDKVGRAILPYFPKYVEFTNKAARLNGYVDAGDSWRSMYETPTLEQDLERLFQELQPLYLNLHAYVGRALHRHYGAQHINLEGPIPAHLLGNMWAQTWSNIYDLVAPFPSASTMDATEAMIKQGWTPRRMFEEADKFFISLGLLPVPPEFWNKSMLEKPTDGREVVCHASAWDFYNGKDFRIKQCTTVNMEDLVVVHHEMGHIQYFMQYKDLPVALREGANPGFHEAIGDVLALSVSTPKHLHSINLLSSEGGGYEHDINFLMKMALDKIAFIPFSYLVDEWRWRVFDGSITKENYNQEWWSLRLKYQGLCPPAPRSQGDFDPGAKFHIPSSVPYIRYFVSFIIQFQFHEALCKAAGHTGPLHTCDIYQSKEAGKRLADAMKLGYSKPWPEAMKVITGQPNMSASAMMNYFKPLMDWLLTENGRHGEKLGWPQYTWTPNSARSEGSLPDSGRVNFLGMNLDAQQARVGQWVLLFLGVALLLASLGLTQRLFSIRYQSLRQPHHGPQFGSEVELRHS
Source text: Although conversion of angiotensin I to angiotensin II by angiotensin-converting enzyme is probably the reaction of most importance in the pathology of hypertension, the activity of the isolated enzyme is more conveniently and accurately assayed by measuring its rate of cleavage of a simpler peptide substrate, hippuryl-L-histidyl-L-leucine. […] Controls containing no inhibitor (100% activity), and those acidified before addition of the enzyme (0% activity) are similarly prepared. All of the enzymatic reations are initiated by addition of the enzyme component; tubes are incubated for 30 minutes at 37° C.; and reactions are terminated by addition of 0.25 ml. of 1 N HCl. The hippuric acid formed by action of angiotensin-converting enzyme on hippuryl-L-histidyl-L-leucine is extracted into ethyl acetate, evaporated to dryness, redissolved in water and quantitated from its absorbance at 228 nm. The percent inhibition by each concentration of compound is calculated by comparison with the 0% and 100% activity controls.

[2] = test system: angiotensin I converting enzyme in excised guinea pig ileum; test: Inhibition of angiotensin I converting enzyme in excised guinea pig ileum (contractile activity of angiotensin I); assay type: cell-based; conditions: Cavia porcellus, Krebs solution at 37°, angiotensin I added after two minutes, read-out: IC50 (inhibition of the contractile activity of angiotensin I by 50%)
Description: After two minutes, angiotensin I ([…]) is added and the isotonic contractions are measured.

[3] = test system: anesthetized normotensive rats; conditions: intravenous injection, Schulze 1972; cited from earlier work
[4] = Fujimura et al. 1964; cited from earlier work
[5] = test system: normotensive rats; conditions: Ripa 1970; cited from earlier work
[6] = test system: angiotensin I pressor response; test: Inhibition of angiotensin I pressor response in unanesthetized rats after oral administration; assay type: in vivo, rats of the Sprague-Dawley strain; conditions: unanesthetized male Sprague-Dawley rats, 0.31 μg/kg angiotensin I, 2 animals
Description: A representative compound of the present invention administered orally at doses of 10 and 100 mg/kg to unanesthetized male rats of the Sprague-Dawley strain weighing about 200 g., followed by an injection of 0.31 μg/kg of angiotensin I, indicates the following degree of inhibition obtained.

Structure (SMILES)	IC50 [1]	IC50 [2]	further results
CC(=O)NC(CSC(C)=O)C(=O)N1CCC[C@H]1C(=O)O (mixture of isomers) [N,S-Diacetyl-DL-cysteinyl-L-proline]	72.8 µM	23 µg/mL	
CC(=O)NC(CS)C(=O)N1CCC[C@H]1C(=O)O (mixture of isomers) [N-Acetyl-DL-cysteinyl-L-proline]	1.15 µM	0.6 µg/mL	
NCCCC(CS)C(=O)N1CCC[C@H]1C(=O)O (mixture of isomers) [1-(5-Amino-2-mercaptomethylpentanoyl)-L-proline]	0.0691 µM	0.47 µg/mL (≈ 1.81 µM)	
CC(S)C(=O)NCC(=O)O (stereo not shown) [2-mercaptopropionyl-glycine]			lowering of the blood pressure [3]: produced lowering of the blood pressure; effects on blood pressure [4]: no noticeable effects on blood pressure; angiotensinogen [5]: increases angiotensinogen; renin blood levels [5]: lowers renin blood levels
N[C@H](CS)C(=O)N1CCC[C@H]1C(=O)O [D-Cysteinyl-L-proline] (H-[dC]-Pro-OH)	0.596 µM	0.05 µg/mL (≈ 0.229 µM)	% maximum inhibition of angiotensin I pressor response ([6]; 10 mg/kg orally): 62%; % maximum inhibition of angiotensin I pressor response ([6]; 100 mg/kg orally): 95%
N[C@@H](CS)C(=O)N1CCC[C@H]1C(=O)O [L-Cysteinyl-L-proline] (H-Cys-Pro-OH)	36.7 µM	23 µg/mL (≈ 105 µM)	
